Data published in patent publication US5049389A, “Novel liposome composition for the treatment of interstitial lung diseases” (priority 1989, dated 1991).

What was measured:
[1] = Thin layer chromatographic assay of lung samples for BDP metabolism; type: in vivo, rat; conditions: thin layer chromatography
[2] = Partition between octanol and phosphate buffer saline; type: physicochemical; conditions: pH 7.4
From the text: Nearly all (95%) of the BDP was associated with the octanol.

[3] = rat, in vivo
Protocol: The amount of drug in the lungs at time zero can be used to determine the amount of free drug in the formulation, since free drug is very rapidly absorbed from the lungs (Dose=free drug+amount in lungs at t=0). This amount also includes any liposome associated drug that was rapidly released ("burst" effect).
The absorption kinetics (sustained release) was determined by measuring percentage of ^14 C BDP remaining in the lungs following the intratracheal instillation of the above described five liposome formulations and one intravenous administration of free drug.
All studies were performed in male Sprague-Dawley rats weighing 250 to 450 g. After fasting for 16 hours, animals were anesthetized by i.m. injection of ketamine (25 mg/kg), xylazine (5 mg/kg) and acepromazine (0.5 mg/ml). During the procedure the animal's body temperature was maintained with a 37° C. heating pad. Additional anesthetic was administered as required, using half the original dose. A midline incision was made in the neck and the right jugular vein and left carotid artery were cannulated with short lengths of polyethylene tubing to which a 23 ga Luer stub adapter (Clay Adams #7565) and plastic 3-way stopcock (Argyle #173518) were attached. Blood samples (0.5-4 ml) were removed from the carotid arterial cannula after first flushing with fresh blood to clear the line. Blood volume removed was replaced with an equal volume of 5% dextrose solution containing 50 U/ml of heparin via the jugular cannula. For intravenous (i.v.) injection studies, drug was injected into the venous cannula with a 500 ul glass syringe via a 22 ga needle and injection cap and flushed with 0.5 to 1.0 ml dextrose solution.
For intratracheal (i.t.) instillation of BDP formulations, (Table V) the trachea was cannulated with a 4 cm long section of Teflon tubing (1.2 mm I.D.), inserted at the level of the fifth tracheal ring below the thyroid cartilage and tied in place with a suture. Excess fluid in the trachea was aspirated through tubing attached to a syringe. […]

[4] = tested on: chronic relapsing Stage II and III pulmonary sarcoidosis; conditions: 1200 or 2400 ug daily inhaled via Nebuhaler; cited from earlier work

SMILES	metabolism of BDP prior to leaving the lungs [1]	BDP associated with the octanol [2] [%]	drug absorbed before the first time point [3]	apparent half-life in lungs (elimination of released radiolabel, not absorption) ([3]; 0.008 mg/kg) [h]	^14 C BDP removed from the lungs (absorbed) ([3]; 0.5 h) [%]	improvement in pulmonary sarcoidosis [4]
CCC(=O)OCC(=O)[C@@]1(OC(=O)CC)[C@@H](C)C[C@H]2[C@@H]3CCC4=CC(=O)C=C[C@]4(C)[C@@]3(Cl)[C@@H](O)C[C@@]21C [Beclomethasone dipropionate, beclomethasone dipropionate]	no detectable metabolism of BDP prior to leaving the lungs	95	over 98%	3.0	99.7	–
CCCC1O[C@@H]2C[C@H]3[C@@H]4CCC5=CC(=O)C=C[C@]5(C)[C@H]4[C@@H](O)C[C@]3(C)[C@]2(C(=O)CO)O1 (stereo partly drawn) [budesonide]	–	–	–	–	–	showed improvement in chronic relapsing Stage II and III pulmonary sarcoidosis
